Article PMC4051630, “A Comparison of Protein Kinases Inhibitor Screening Methods Using Both Enzymatic Activity and Binding Affinity Determination” (PLoS ONE, 2014)
Like-named read-outs stand apart in the source and are kept apart here.

Legend:
Experiment in all cases: Differential Scanning Fluorimetry (DSF) Tm shift
Assay type in all cases: binding
[1] = target: T1, PAK4 Catalytic Domain+PBD (Homo sapiens, UniProt O96013); details: 2 µM protein, 10 µM inhibitor, average of 3 experiments, each in duplicate
T1 construct: for 8, we also made a longer version containing one or more additional domains; His-tag; made in house; host or cells: Escherichia coli

SRC Catalytic Domain = SRC Catalytic Domain (Homo sapiens, UniProt P12931); parameters: For all of them, we expressed and purified the catalytic domain separately; His-tag; made in house; host or cells: Escherichia coli; details: 2 µM protein, 10 µM inhibitor, average of 3 experiments, each in duplicate
FAK2 Catalytic Domain = target: T2, FAK2 Catalytic Domain (Homo sapiens, UniProt Q14289); details: 2 µM protein, 10 µM inhibitor, average of 3 experiments, each in duplicate
T2 construct: For all of them, we expressed and purified the catalytic domain separately; His-tag; made in house; host or cells: Escherichia coli

STK3 Catalytic Domain = target: T3, STK3 Catalytic Domain (Homo sapiens, UniProt Q13188); details: 2 µM protein, 10 µM inhibitor, average of 3 experiments, each in duplicate
T3 construct: For all of them, we expressed and purified the catalytic domain separately; His-tag; made in house; host or cells: Escherichia coli
T3 sequence (Q13188 27-278 limits assumed): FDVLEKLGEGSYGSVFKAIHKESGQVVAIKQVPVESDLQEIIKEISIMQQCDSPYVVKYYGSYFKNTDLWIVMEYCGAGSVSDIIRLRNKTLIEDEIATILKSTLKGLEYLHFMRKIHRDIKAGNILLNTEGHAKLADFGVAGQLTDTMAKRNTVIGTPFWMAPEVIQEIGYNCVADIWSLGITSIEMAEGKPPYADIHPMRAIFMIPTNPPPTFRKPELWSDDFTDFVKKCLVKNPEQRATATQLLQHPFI

CDK2 + Cyclin E = target: T4, CDK2 + Cyclin E (Homo sapiens, UniProt P24941)
T4 construct: CDK2 (P24941); 1–299; His-tag; made in house; host or cells: Escherichia coli

PAK7 Catalytic Domain = target: T5, PAK7 Catalytic Domain (Homo sapiens, UniProt Q9P286); details: 2 µM protein, 10 µM inhibitor, average of 3 experiments, each in duplicate
T5 construct: For all of them, we expressed and purified the catalytic domain separately; His-tag; made in house; host or cells: Escherichia coli

[2] = target: SRC Catalytic Domain+SH2+SH3 (Homo sapiens, UniProt P12931); details: 2 µM protein, 10 µM inhibitor, average of 3 experiments, each in duplicate
CDK2 + Cyclin A = target: T6, CDK2 + Cyclin A (Homo sapiens, UniProt P24941)
T6 construct: CDK2 (P24941); 1–299; His-tag; made in house; host or cells: Escherichia coli

AKT3 Catalytic Domain = target: T7, AKT3 Catalytic Domain (Homo sapiens, UniProt Q9Y243); details: 2 µM protein, 10 µM inhibitor, average of 3 experiments, each in duplicate
T7 construct: AKT3 (Q9Y243); CD; His-tag; made in house; host or cells: Escherichia coli

[3] = target: T8, STK3 Catalytic domain+SARAH (Homo sapiens, UniProt Q13188); details: 2 µM protein, 10 µM inhibitor, average of 3 experiments, each in duplicate
T8 construct: for 8, we also made a longer version containing one or more additional domains; His-tag; made in house; host or cells: Escherichia coli
T8 sequence (Q13188 1-491): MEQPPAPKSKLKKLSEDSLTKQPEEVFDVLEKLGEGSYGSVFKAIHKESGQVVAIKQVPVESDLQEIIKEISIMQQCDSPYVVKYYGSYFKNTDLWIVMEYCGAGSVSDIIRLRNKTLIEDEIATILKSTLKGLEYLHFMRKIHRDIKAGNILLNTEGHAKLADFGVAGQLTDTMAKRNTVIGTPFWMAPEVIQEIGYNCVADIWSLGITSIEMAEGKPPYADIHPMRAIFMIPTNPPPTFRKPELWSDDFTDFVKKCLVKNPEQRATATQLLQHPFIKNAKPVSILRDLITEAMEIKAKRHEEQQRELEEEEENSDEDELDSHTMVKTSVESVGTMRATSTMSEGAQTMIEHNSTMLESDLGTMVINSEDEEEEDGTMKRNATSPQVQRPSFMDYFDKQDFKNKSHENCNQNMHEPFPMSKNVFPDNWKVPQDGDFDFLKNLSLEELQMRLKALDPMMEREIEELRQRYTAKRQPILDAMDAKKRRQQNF

FES Catalytic Domain = target: T9, FES Catalytic Domain (Homo sapiens, UniProt P07332); details: 2 µM protein, 10 µM inhibitor, average of 3 experiments, each in duplicate
T9 construct: For all of them, we expressed and purified the catalytic domain separately; His-tag; made in house; host or cells: Escherichia coli

DMPK Catalytic Domain = target: T10, DMPK Catalytic Domain (Homo sapiens, UniProt Q09013); details: 2 µM protein, 10 µM inhibitor, average of 3 experiments, each in duplicate
T10 construct: For all of them, we expressed and purified the catalytic domain separately; His-tag; made in house; host or cells: Escherichia coli
T10 sequence (Q09013 71-339 limits assumed): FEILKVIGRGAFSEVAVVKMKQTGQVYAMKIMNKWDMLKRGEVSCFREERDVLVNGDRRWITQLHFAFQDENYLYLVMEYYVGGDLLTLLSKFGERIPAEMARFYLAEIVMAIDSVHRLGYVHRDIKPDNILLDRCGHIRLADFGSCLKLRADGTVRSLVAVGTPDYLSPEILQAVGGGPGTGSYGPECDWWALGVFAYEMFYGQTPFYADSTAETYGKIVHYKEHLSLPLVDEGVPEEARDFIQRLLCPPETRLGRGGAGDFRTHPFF

FES Catalytic Domain+SH2 = target: T11, FES Catalytic Domain+SH2 (Homo sapiens, UniProt P07332); details: 2 µM protein, 10 µM inhibitor, average of 3 experiments, each in duplicate
T11 construct: for 8, we also made a longer version containing one or more additional domains; His-tag; made in house; host or cells: Escherichia coli

CHK2 Catalytic Domain = target: T12, CHK2 Catalytic Domain (Homo sapiens, UniProt O96017); details: 2 µM protein, 10 µM inhibitor, average of 3 experiments, each in duplicate
T12 construct: For all of them, we expressed and purified the catalytic domain separately; His-tag; made in house; host or cells: Escherichia coli

PAK4 Catalytic Domain = target: T13, PAK4 Catalytic Domain (Homo sapiens, UniProt O96013); details: 2 µM protein, 10 µM inhibitor, average of 3 experiments, each in duplicate
T13 construct: For all of them, we expressed and purified the catalytic domain separately; His-tag; made in house; host or cells: Escherichia coli

[4] = CDK2 + Cyclin E, 2 µM protein, 10 µM inhibitor, average of 3 experiments, each in duplicate
[5] = CDK2 + Cyclin A, 2 µM protein, 10 µM inhibitor, average of 3 experiments, each in duplicate

T11 sequence (P07332 448-822 limits assumed): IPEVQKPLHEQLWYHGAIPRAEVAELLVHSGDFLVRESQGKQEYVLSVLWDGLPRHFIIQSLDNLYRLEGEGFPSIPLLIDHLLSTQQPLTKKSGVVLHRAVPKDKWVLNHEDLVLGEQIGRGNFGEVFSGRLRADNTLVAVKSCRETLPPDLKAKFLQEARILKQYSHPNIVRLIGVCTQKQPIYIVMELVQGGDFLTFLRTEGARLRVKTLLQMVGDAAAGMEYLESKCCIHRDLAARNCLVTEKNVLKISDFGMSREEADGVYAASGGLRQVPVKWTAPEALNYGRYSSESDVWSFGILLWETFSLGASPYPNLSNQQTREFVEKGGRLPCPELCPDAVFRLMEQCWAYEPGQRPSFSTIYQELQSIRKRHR
SRC Catalytic Domain+SH2+SH3, sequence (P12931 84-523 limits assumed): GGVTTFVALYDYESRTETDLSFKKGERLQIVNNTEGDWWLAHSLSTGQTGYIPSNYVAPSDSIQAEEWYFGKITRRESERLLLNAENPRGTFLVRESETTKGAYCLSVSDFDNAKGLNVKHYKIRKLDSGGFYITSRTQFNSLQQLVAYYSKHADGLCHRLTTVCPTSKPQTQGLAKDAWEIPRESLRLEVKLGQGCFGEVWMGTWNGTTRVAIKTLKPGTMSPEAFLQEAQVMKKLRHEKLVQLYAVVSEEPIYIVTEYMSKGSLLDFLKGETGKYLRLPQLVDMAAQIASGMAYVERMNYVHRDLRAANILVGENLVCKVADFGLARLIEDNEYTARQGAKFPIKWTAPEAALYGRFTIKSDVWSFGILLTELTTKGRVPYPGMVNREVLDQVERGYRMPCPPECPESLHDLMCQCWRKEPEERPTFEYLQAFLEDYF
T2 sequence (Q14289 425-683 limits assumed): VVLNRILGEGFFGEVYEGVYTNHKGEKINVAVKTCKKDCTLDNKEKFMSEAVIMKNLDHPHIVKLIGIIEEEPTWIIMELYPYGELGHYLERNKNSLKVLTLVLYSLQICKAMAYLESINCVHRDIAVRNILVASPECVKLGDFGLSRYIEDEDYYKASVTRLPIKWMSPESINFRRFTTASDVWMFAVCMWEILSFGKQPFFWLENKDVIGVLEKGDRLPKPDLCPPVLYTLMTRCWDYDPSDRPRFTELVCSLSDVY
SRC Catalytic Domain, sequence (P12931 270-523 limits assumed): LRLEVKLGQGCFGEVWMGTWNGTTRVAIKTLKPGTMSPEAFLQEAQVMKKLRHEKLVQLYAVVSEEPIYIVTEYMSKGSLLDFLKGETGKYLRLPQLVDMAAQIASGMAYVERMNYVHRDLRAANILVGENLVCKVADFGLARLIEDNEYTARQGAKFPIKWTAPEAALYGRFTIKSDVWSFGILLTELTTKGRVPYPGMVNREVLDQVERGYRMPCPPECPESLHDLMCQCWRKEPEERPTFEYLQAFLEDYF
T1 sequence (O96013 whole entry, the tested form may be a part): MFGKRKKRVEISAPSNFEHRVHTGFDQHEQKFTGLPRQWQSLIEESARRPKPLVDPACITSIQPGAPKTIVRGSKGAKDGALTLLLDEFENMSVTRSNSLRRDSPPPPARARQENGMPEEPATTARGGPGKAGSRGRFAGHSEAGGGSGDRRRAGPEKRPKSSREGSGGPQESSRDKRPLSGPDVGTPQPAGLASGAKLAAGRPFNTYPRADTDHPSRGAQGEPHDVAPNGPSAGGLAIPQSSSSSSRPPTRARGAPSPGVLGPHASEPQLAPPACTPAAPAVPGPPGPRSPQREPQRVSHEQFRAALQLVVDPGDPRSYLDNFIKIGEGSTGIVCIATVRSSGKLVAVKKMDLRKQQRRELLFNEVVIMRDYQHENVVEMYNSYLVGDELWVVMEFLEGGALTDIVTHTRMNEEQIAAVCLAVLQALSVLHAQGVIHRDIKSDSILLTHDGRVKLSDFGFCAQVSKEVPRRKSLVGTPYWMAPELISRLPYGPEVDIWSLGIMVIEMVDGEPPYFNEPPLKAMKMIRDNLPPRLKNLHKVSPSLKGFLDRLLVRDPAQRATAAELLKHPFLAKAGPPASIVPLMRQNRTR
T12 sequence (O96017 220-486 limits assumed): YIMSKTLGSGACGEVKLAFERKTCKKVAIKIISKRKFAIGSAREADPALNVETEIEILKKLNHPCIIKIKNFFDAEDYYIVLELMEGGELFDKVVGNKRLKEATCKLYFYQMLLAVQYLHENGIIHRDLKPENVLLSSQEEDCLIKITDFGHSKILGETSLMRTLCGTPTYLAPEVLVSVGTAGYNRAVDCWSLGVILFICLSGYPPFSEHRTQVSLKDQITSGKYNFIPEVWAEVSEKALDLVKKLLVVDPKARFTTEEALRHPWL
T5 sequence (Q9P286 449-700 limits assumed): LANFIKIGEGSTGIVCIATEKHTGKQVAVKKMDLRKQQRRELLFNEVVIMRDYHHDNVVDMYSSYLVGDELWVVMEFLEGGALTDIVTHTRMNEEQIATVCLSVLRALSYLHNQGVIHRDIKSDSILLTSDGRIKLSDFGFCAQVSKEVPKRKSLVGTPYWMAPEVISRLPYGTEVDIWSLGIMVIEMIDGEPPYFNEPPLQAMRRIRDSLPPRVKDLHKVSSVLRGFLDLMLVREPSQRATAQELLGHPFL
T7 sequence (Q9Y243 122-479): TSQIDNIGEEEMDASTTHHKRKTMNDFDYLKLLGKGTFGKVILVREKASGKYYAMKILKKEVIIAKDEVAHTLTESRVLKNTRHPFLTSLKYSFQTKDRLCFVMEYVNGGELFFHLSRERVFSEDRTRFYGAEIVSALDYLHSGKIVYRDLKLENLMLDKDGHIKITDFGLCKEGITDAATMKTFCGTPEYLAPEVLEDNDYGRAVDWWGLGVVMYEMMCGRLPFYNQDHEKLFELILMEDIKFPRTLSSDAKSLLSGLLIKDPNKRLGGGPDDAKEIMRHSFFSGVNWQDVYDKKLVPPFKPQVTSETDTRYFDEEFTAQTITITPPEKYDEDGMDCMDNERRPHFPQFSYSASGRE
T13 sequence (O96013 321-572 limits assumed): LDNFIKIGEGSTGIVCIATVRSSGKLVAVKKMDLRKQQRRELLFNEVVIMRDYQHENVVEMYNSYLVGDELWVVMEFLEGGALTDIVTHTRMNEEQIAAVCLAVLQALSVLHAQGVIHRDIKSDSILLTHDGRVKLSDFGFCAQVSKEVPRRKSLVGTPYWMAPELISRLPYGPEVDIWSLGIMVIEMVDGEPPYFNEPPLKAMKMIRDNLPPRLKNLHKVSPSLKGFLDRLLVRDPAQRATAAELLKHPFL
T9 sequence (P07332 561-822 limits assumed): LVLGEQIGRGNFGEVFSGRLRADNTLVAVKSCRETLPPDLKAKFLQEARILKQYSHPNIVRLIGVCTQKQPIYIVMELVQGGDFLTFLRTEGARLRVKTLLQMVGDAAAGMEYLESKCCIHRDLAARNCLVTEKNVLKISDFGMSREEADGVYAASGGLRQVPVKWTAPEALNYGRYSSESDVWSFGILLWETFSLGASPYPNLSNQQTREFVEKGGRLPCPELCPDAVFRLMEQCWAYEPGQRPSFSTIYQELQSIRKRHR

| Compound | Melting temperature (Tm) shift [1] | Melting temperature (Tm) shift (SRC Catalytic Domain) | Melting temperature (Tm) shift (FAK2 Catalytic Domain) | Melting temperature (Tm) shift (STK3 Catalytic Domain) | Melting temperature (Tm) shift (CDK2 + Cyclin E) | Melting temperature (Tm) shift (PAK7 Catalytic Domain) | Melting temperature (Tm) shift [2] | Melting temperature (Tm) shift (CDK2 + Cyclin A) | Melting temperature (Tm) shift (AKT3 Catalytic Domain) | Melting temperature (Tm) shift [3] | Melting temperature (Tm) shift (FES Catalytic Domain) | Melting temperature (Tm) shift (DMPK Catalytic Domain) | Melting temperature (Tm) shift (FES Catalytic Domain+SH2) | Melting temperature (Tm) shift (CHK2 Catalytic Domain) | Melting temperature (Tm) shift (PAK4 Catalytic Domain) | Melting temperature (Tm) shift (CDK2 + Cyclin E; [4]) | Melting temperature (Tm) shift (CDK2 + Cyclin A; [5]) |
| --- | --- | --- | --- | --- | --- | --- | --- | --- | --- | --- | --- | --- | --- | --- | --- | --- | --- |
| Cc1[nH]c(/C=C2\C(=O)Nc3ccc(S(=O)(=O)N(C)c4cccc(Cl)c4)cc32)c(C)c1C(=O)N1CCN(C)CC1 [Met Kinase Inhibitor] | 0.3 degrees Celcius | 0.3 degrees Celcius | 0.1 degrees Celcius | 0.7 degrees Celcius | 0.1 | 0.2 degrees Celcius | 0.2 degrees Celcius | 0.4 | 0.0 degrees Celcius | 0.9 degrees Celcius | 0.6 degrees Celcius | 1.2 degrees Celcius | 0.1 degrees Celcius | 1.2 degrees Celcius | 0.9 degrees Celcius | – | – |
| N#Cc1cnc2cnc(NCc3cccnc3)cc2c1Nc1ccc(F)c(Cl)c1 [Tpl2 Kinase Inhibitor] | 0.6 degrees Celcius | 0.2 degrees Celcius | 0.5 degrees Celcius | 0.2 degrees Celcius | – | 0.1 degrees Celcius | 0.1 degrees Celcius | – | 0.1 degrees Celcius | 0.4 degrees Celcius | 0.0 degrees Celcius | 1.4 degrees Celcius | 0.2 degrees Celcius | 0.3 degrees Celcius | 0.5 degrees Celcius | 0.5 degrees Celcius | 0.2 degrees Celcius |
| NC(=O)Nc1sc(-c2ccc(F)cc2)cc1C(N)=O [IKK-2 Inhibitor IV] | 2.4 degrees Celcius | 1.2 degrees Celcius | 1.2 degrees Celcius | 2.8 degrees Celcius | – | 1.3 degrees Celcius | 1.0 degrees Celcius | – | 0.1 degrees Celcius | 1.6 degrees Celcius | 1.5 degrees Celcius | 1.8 degrees Celcius | 0.5 degrees Celcius | 3.6 degrees Celcius | 1.5 degrees Celcius | 0.4 degrees Celcius | 0.7 degrees Celcius |
| CC(C)n1cnc2c(Nc3cccc(Cl)c3)nc(NCCO)nc21 [Compound 52] | 5.0 degrees Celcius | 0.9 degrees Celcius | 0.9 degrees Celcius | 1.2 degrees Celcius | – | 1.8 degrees Celcius | 0.8 degrees Celcius | – | 0.0 degrees Celcius | 0.7 degrees Celcius | 2.3 degrees Celcius | 0.0 degrees Celcius | 0.6 degrees Celcius | 1.1 degrees Celcius | 2.0 degrees Celcius | 1.7 degrees Celcius | 2.3 degrees Celcius |
